These results are taken from patent publication US20030207813A1, “Retroviral protease inhibitor combinations” (priority 1995, published 2003).

Converted amounts (≈) assume the structure as drawn. Read-outs that look alike come from different tables or passages of the source.

For one test, the system named is HIV-1 strain SF-162. In words: Acute infectivity assay in PHA-activated donor lymphocytes, isolate SF162. The conditions noted are these: Human immunodeficiency virus 1, Lymphocyte. It is filed as cell-based. On the procedure:
(§1) Approximately 3×10^7 cells are activated for 48 hours with about 3-5 μg/ml PHA in RPMI continuing 10% fetal bovine serum and IL-2 (10 U/ml). Quantitated virus stocks are added to the activated lymphocyte suspension at a multiplicity of infection of about 0.001-0.01. The cell-virus suspension is incubated at 37° C. for 2 hours to allow virus absorption. The residual virus inoculum is removed by centrifugation and the cells are resuspended in RPMI containing 10% FBS and 10 U/ml IL-2. These infected cells are added to the test-article diluted in complete tissue culture medium from a stock (10 mg/ml) in DMSO in 96 well microtiter plates to give about 5×10^5 cells per well per 200 μl. Infected, untreated cells and cells treated with DMSO alone (0.1%) or either AZT or DDI were used as controls. The cultures were examined for syncytia formation on days 7 and 11 post-infection or the supernants tested for reverse transcriptase activity or p24 antigen.
(§2) RF represents the HIV-1 strain HIV-LRF and RFR represents a mixture of resistant strains obtained by selection of RF against the compound of Example 1. RFR comprises a mixture of viral strains having protease genotypes of G48V (14/40 clones); G48V, V82A (18/40 clones); G48V, L90S (2/40 clones); G48V, 154T, V82A (1/40 clones); G48M (1/40 clones); G48V, Q61H (1/40 clones); V13I, G48V (1/40 clones); G48V, F53L, V82A (1/40 clones); and G48V, V82A, C95Y (1/40 clones). RFR2 represents a mixture of resistant strains obtained by cloning RFR by three rounds of growth at limiting dilution. RFR2 comprises a mixture of viral strains having protease genotypes of G48V, V82A (13/15 clones); G17E, G48V, V82A (1/15 clones); and G48V, V82A, N37D, N88D (1/15 clones). RFRR represents a mixture of resistant strains obtained by selection of RF against the compounds of Examples 1 and 2 and then cloning by three rounds of growth at limiting dilution. RFRR comprises a mixture of viral strains having protease genotypes of G48V, 154T, L63P, V82A (7/9 clones); G48V, 154T, L63P, V82A, N88S (1/9 clones); and G48V, 154T, L63P, G73M, V82A (1/9 clones). SF162 represents the HIV-1 strain SF-162 and SF162R represents a mixture of resistant strains obtained by selection of SF162 against the compound of Example 1. SF162R comprises a mixture of viral strains having protease genotypes of M461, F53L, L63P, A71V, N88D (2/3 clones); and M46I, F53L, L63P, A71V, N88D, Q92R (1/3 clones). 89-959 represents the HIV-1 strain 89-959 and 89-959R represents a mixture of resistant strains obtained by selection of 89-959 against the compound of Example 2. 89-959R comprises a mixture of viral strains having protease genotypes of N88S (4/5 clones); and D25N, T26A, D30N, D37N, R41K, G73D, R87K, N88S (1/4 clones). NL4 represents the HIV-1 strain HIV-1NL4-3. NL4(G48V) represents a strain having a synthetically generated site-directed mutation in the protease from glycine to valine at amino acid position number 48. NL4(I84V) represents a strain having a synthetically generated site-directed mutation in the protease from isoleucine to valine at amino acid position number 84. NL4(R8Q,M46I) represents a strain having synthetically generated site-directed mutations in the protease from arginine to glutamine at amino acid position number 8 and methionine to isoleucine at amino acid position number 46. NL4(P22-538) represents a mixture of resistant strains obtained by selection of HIV-1NL4-3 against the compound of Example 10 after 22 passages comprising protease genotypes M46I, L63P, A71V, V82F, I84V (4/10); M46I, L63P, V82F, I84V (3/10); and M46I, A71V, V82F, I84V (3/10). NL4(P37-538) represents resistant strains obtained by selection of HIV-1NL4-3 against the compound of Example 10 after 37 passages comprising protease genotype M46I, L63P, A71V, 184A. NL4(538/524) represents resistant strains obtained by selection of NL4(P22-538) against the compound of Example 5 after 24 passages comprising protease genotype M46I, L63P, A71V, 184A. […]

In test [1] the test system is 89-959R (resistant strains selected from 89-959 against Example 2). In words: Acute infectivity assay in PHA-activated donor lymphocytes, resistant isolate 89-959R. In kind it is cell-based, HIV-1. The conditions noted are these: Human immunodeficiency virus 1, Lymphocyte, read-out: Virus Isolate (EC50 ng/mL) 89-959R. On the procedure:
as §1, §2

Setting [2] is: Table 2, read-out: Virus Isolate (EC50 ng/mL) SF162.
Where [3] appears, read: Table 1, read-out: Virus Isolate (EC50 ng/mL) SF162.

As to `CC(C)CN(C[C@@H](O)[C@H](Cc1ccccc1)NC(=O)[C@H](CC(N)=O)NC(=O)c1ccc2ccccc2n1)S(=O)(=O)NC(C)(C)C` [Example 8, N-[3-[N^2-[N^1-(1,1-dimethylethyl)aminosulfonyl]-N^2-(2-methylpropyl)amino]-2R-hydroxy-1S-(phenylmethyl)propyl]-2S-[(2-quinolinylcarbonyl)amino]butanediamide], the EC50 stood at 1 ng/mL (≈ 1.56 nM) in the test with HIV-1 strain SF-162 (setting [2]); 11 ng/mL (≈ 17.2 nM) in test [1] (Table 3, experiments † and §).
With `CNCC(=O)N[C@H](C(=O)N[C@@H](Cc1ccccc1)[C@H](O)CN(CCC(C)C)C(=O)NC(C)(C)C)C(C)(C)C` [Example 2, (2R,3S)-3-(N-methylaminoacetyl-L-tert-butylglycinyl)amino-1-(N-isoamyl-N-(tert-butylcarbamoyl))amino-4-phenyl-2-butanol], the EC50 came out at 2 ng/mL (≈ 3.75 nM) in the test on HIV-1 strain SF-162 (setting [3]); 872 ng/mL (≈ 1630 nM) in test [1] (Table 3, (experiment ‡)); 395 ng/mL (≈ 740 nM) in test [1] (Table 3, experiments † and §).
On to `CC(C)(C)NC(=O)[C@@H]1CC2CCCC[C@@H]2CN1C[C@@H](O)[C@H](Cc1ccccc1)NC(=O)[C@H](CC(N)=O)NC(=O)c1ccc2ccccc2n1` (stereo in doubt) [Example 6, N-tert-Butyl decahydro-2-[2(R)-hydroxy-4-phenyl-3(S)-[[N-(2-quinolylcarbonyl)-L-asparaginyl]amino]butyl]-(4aR,8aS)-isoquinoline-3(S)-carboxamide], for which the EC50 worked out at 2 ng/mL (≈ 2.98 nM) with HIV-1 strain SF-162 (setting [3]) and 6 ng/mL (≈ 8.94 nM) in test [1] (Table 3, (experiment ‡)).
Consider `CC(C)CN(C[C@@H](O)[C@H](Cc1ccccc1)NC(=O)[C@H](CC(N)=O)NC(=O)c1ccc2ccccc2n1)C(=O)NC(C)(C)C` (relative stereo) [Example 1, [1S-[1R*(R*),2S*]]-N^1-[3-[[[(1,1-dimethylethyl)amino]carbonyl])2-methylpropyl)amino]-2-hydroxy-1-(phenylmethyl)propyl]-2-[(2-quinolinylcarbonyl)amino]-butanediamide], for which the EC50 in the test on HIV-1 strain SF-162 (setting [3]) came to 31 ng/mL (≈ 51.3 nM); with HIV-1 strain SF-162 (setting [2]), 2 ng/mL (≈ 3.31 nM); in test [1] (Table 3, (experiment ‡)), 37 ng/mL (≈ 61.2 nM); in test [1] (Table 3, experiments † and §), 5 ng/mL (≈ 8.27 nM).
Consider `CC(C)CCN(C[C@@H](O)[C@H](Cc1ccccc1)NC(=O)[C@H](CC(N)=O)NC(=O)c1ccc2ccccc2n1)C(=O)NC(C)(C)C` (relative stereo) [Example 7, [1S-[1R*(R*),2S*]]-N^1-[3-[[[(1,1-dimethylethyl)amino]carbonyl](3-methylbutyl)amino]-2-hydroxy-1-(phenylmethyl)propyl]-2-[(2-quinolinylcarbonyl)amino]-butanediamide], for which the EC50 in the test on HIV-1 strain SF-162 (setting [2]) amounted to 1 ng/mL (≈ 1.62 nM); in test [1] (Table 3, experiments † and §), 12 ng/mL (≈ 19.4 nM).
With `CC(C)(C)NC(=O)[C@@H]1CN(Cc2cccnc2)CCN1C[C@@H](O)C[C@@H](Cc1ccccc1)C(=O)N[C@H]1c2ccccc2C[C@H]1O` [Example 5, N-(2(R)-Hydroxy-1(S)-indanyl)-2(R)-phenylmethyl-4(S)-hydroxy-5-(1-(4-(3-pyridylmethyl)-2(S)-N′-(t-butylcarboxamido)-piperazinyl))-pentaneamide], the EC50 with HIV-1 strain SF-162 (setting [3]) amounted to 4 ng/mL (≈ 6.52 nM); in test [1] (Table 3, (experiment ‡)), 38 ng/mL (≈ 61.9 nM); in test [1] (Table 3, experiments † and §), 5 ng/mL (≈ 8.15 nM).
